Source: patent US20200171065A1, “METHOD FOR TREATING LIVER DISEASE WITH KINSENOSIDE” (HUAZHONG UNIVERSITY OF SCIENCE AND TECHNOLOGY, priority 2017, published 2020)

System: SD mice with ANIT induced intrahepatic cholestasis
Experiment: ANIT-induced intrahepatic cholestasis
Assay type: in vivo
Experimental: 42 SPF SD mice were purchased and raised in the SPF experimental animal center of Tongji Medical College of Huazhong University of Science and Technology. They were provided with standard diet and drinking water. The room temperature was controlled at 23±2° C. After 3 days of adaptive feeding, they were given drugs by intragastric administration. 42 SD mice were randomly divided into 7 groups (normal control group, ANIT model group, KD low-dose group, KD medium dose group, KD high-dose group, UDCA positive control group and KD negative control group), 6 mice in each group were weighed and recorded daily. […] Thereafter, the drug was given again every 24 hours for 3 times, and the animals in each group were fasted (water was provided) after the third time. 72 hours later, the animals were killed and samples were collected.

`C[C@H](CCC(=O)O)[C@H]1CC[C@H]2[C@@H]3[C@@H](O)C[C@@H]4C[C@H](O)CC[C@]4(C)[C@H]3CC[C@]12C` [UDCA, reference compound] was tested, and the plasma color (KD 50, 100, 200 mg/kg or UDCA 80 mg/kg by gavage) was “turned light yellow similar to that of the normal control group”, the “hepatic sinusoid and inflammatory cell infiltration (HE staining)” value (different doses of KD, UDCA treatment group) was “normal hepatic sinusoid, obvious hepatocyte gap, and obvious recovery of inflammatory cell infiltration” and the “plasma ALT, AST, AKP, TBIL and DBIL” value (low, medium and high doses of KD, 80 mg/kg UDCA) was “can significantly reduce ALT, AST, AKP, TBIL and DBIL”. For the same compound, the “plasma TBA” value (medium and high doses of KD, 80 mg/kg UDCA) was “can significantly reduce TBA”.
